Test results as given in the supplement of paper PMC10307832.

Tests used:
Assay in all cases: relative viability (nuclei count vs DMSO), 5 days (fraction); higher = more cells survive
Carboplatin + Phenformin = compound: C1CC(C1)(C(=O)O)C(=O)O.[NH2-].[NH2-].[Pt+2] [Carboplatin] + N=C(N)NC(=N)NCCc1ccccc1 [Phenformin] (partner 250 µM)
How it was run: (§1)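 For relative viability, nuclei counts in treated wells were divided by those in vehicle wells. Lung cancer cell lines had been pin-tool dosed in 1536-well plates the day after seeding and cultured for 5 days, then fixed and stained in one step (final 0.05% Triton X-100, 1% formaldehyde, 1 ug/ml Hoechst) and imaged at 4×. Doses were one drug alone or a fixed anchor-drug dose plus five library-drug doses (not always all listed) in √10 steps, and values are duplicate-plate medians.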

GSK126 + Luminespib = compound: CC[C@H](C)N1C=C(C2=C(C=C(C=C21)C3=CN=C(C=C3)N4CCNCC4)C(=O)NCC5=C(C=C(NC5=O)C)C)C [GSK126] + CCNC(=O)c1noc(-c2cc(C(C)C)c(O)cc2O)c1-c1ccc(CN2CCOCC2)cc1 [Luminespib] (partner 0.01 µM)
How it was run: as §1

GSK126 + Trametinib = compound: CC[C@H](C)N1C=C(C2=C(C=C(C=C21)C3=CN=C(C=C3)N4CCNCC4)C(=O)NCC5=C(C=C(NC5=O)C)C)C [GSK126] + CC(=O)Nc1cccc(-n2c(=O)n(C3CC3)c(=O)c3c(Nc4ccc(I)cc4F)n(C)c(=O)c(C)c32)c1 [Trametinib] (partner 0.02 µM)
How it was run: as §1

Carboplatin + Navitoclax = compound: C1CC(C1)(C(=O)O)C(=O)O.[NH2-].[NH2-].[Pt+2] [Carboplatin] + CC1(C)CCC(c2ccc(Cl)cc2)=C(CN2CCN(c3ccc(C(=O)NS(=O)(=O)c4ccc(N[C@H](CCN5CCOCC5)CSc5ccccc5)c(S(=O)(=O)C(F)(F)F)c4)cc3)CC2)C1 [Navitoclax] (partner 0.5 µM)
How it was run: as §1

Cell Line	relative viability (Carboplatin + Phenformin; first compound 0.08 µM)	relative viability (Carboplatin + Phenformin; first compound 0.253 µM)	relative viability (Carboplatin + Phenformin; first compound 0.8 µM)	relative viability (Carboplatin + Phenformin; first compound 2.53 µM)	relative viability (Carboplatin + Phenformin; first compound 8 µM)	relative viability (GSK126 + Luminespib; first compound 0.08 µM)	relative viability (GSK126 + Luminespib; first compound 0.253 µM)	relative viability (GSK126 + Luminespib; first compound 0.8 µM)	relative viability (GSK126 + Luminespib; first compound 2.53 µM)	relative viability (GSK126 + Luminespib; first compound 8 µM)	relative viability (GSK126 + Trametinib; first compound 0.08 µM)	relative viability (GSK126 + Trametinib; first compound 0.253 µM)	relative viability (GSK126 + Trametinib; first compound 0.8 µM)	relative viability (GSK126 + Trametinib; first compound 2.53 µM)	relative viability (GSK126 + Trametinib; first compound 8 µM)	relative viability (Carboplatin + Navitoclax; first compound 0.08 µM)	relative viability (Carboplatin + Navitoclax; first compound 0.253 µM)	relative viability (Carboplatin + Navitoclax; first compound 0.8 µM)	relative viability (Carboplatin + Navitoclax; first compound 2.53 µM)	relative viability (Carboplatin + Navitoclax; first compound 8 µM)
NCI-H2126	0.591	0.525	0.537	0.503	0.492	1	0.924	0.873	0.972	0.734	0.552	0.576	0.536	0.494	0.564	0.894	0.871	0.853	0.865	0.784
LXF-289	0.566	0.584	0.519	0.539	0.502	0.736	0.652	0.574	0.661	0.747	0.66	0.665	0.7	0.611	0.693	0.933	0.982	0.932	0.903	0.927
BEN	0.233	0.275	0.258	0.264	0.248	0.465	0.681	0.222	0.419	0.342	1.05	0.736	1.02	1.26	0.953	0.0584	0.0591	0.0635	0.0642	0.0703
NCI-H1993	0.542	0.498	0.467	0.477	0.499	0.829	0.931	0.363	0.877	0.832	0.517	0.525	0.448	0.54	0.467	0.981	0.867	0.855	0.755	0.861
SW 1573	0.38	0.354	0.414	0.359	0.265	0.424	0.374	0.196	0.43	0.16	0.57	0.618	0.596	0.587	0.622	0.91	1.03	0.922	1.1	0.543
NCI-H520	0.677	0.595	0.725	0.585	0.54	0.22	0.221	0.236	0.231	0.237	0.748	0.665	0.563	0.807	0.817	1.16	1.09	0.961	1.02	0.857
LCLC-97TM1	0.483	0.399	0.421	0.438	0.394	0.758	0.796	0.867	0.82	0.81	0.205	0.2	0.204	0.211	0.209	0.401	–	0.424	0.391	0.33
HCC-827	0.444	0.394	0.428	0.366	0.365	0.612	0.685	0.676	0.629	0.783	0.478	0.496	0.54	0.635	0.531	0.999	0.98	0.927	0.982	0.918
NCI-H1975	0.437	0.43	0.437	0.413	0.394	0.292	0.257	0.185	0.198	0.12	0.377	0.31	0.362	0.369	0.352	1.19	1.26	1.01	1.09	1.18
